Assay results from PubChem BioAssay (NCI).
Where “and” joins values, the source holds several entries; their conditions need not be identical. Equal values may be shown once.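 Cultured in 96-well plates, cells were exposed to test compound for 48 hours across five concentrations. GI50 = concentration required for 50% inhibition of growth. TGI: concentration producing complete growth inhibition.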

Experiments:
Test in all cases: NCI tumour cell line growth inhibition, 48 h
U251 CNS = tested on: U251 CNS
UO-31 renal = tested on: UO-31 renal
SR leukemia = tested on: SR leukemia
SF-539 CNS = tested on: SF-539 CNS
MALME-3M melanoma = tested on: MALME-3M melanoma
A549 NSCLC = tested on: A549 NSCLC
K-562 leukemia = tested on: K-562 leukemia
SF-295 CNS = tested on: SF-295 CNS
COLO 205 colon = tested on: COLO 205 colon
OVCAR-5 ovarian = tested on: OVCAR-5 ovarian

SMILES | GI50 (U251 CNS) [µM] | TGI (U251 CNS) [µM] | GI50 (UO-31 renal) [µM] | TGI (UO-31 renal) [µM] | GI50 (SR leukemia) [µM] | TGI (SR leukemia) | GI50 (SF-539 CNS) [µM] | TGI (SF-539 CNS) | GI50 (MALME-3M melanoma) [µM] | TGI (MALME-3M melanoma) | GI50 (A549 NSCLC) [µM] | TGI (A549 NSCLC) | GI50 (K-562 leukemia) [µM] | TGI (K-562 leukemia) | GI50 (SF-295 CNS) [µM] | TGI (SF-295 CNS) | GI50 (COLO 205 colon) [µM] | TGI (COLO 205 colon) | GI50 (OVCAR-5 ovarian) [µM] | TGI (OVCAR-5 ovarian)
Oc1ccc(Br)cc1CN1CCN(Cc2ccc(Cl)cc2)CC1 | 27.7 | > 100 | 9.5 | > 100 | 19.1 | 80.9 µM | 32 | > 100 µM | 14.7 | 45.8 µM | 25.1 | > 100 µM | 10.2 | > 100 µM | 18.6 | > 100 µM | 21.7 | 51.1 µM | 21.2 | 75.2 µM
COc1cc(C2C3=C(COC3=O)N(CCO)c3cc4c(cc32)OCCO4)cc(OC)c1O (stereo unspecified) | 2 | > 50 | > 16.7 | > 50 | 1.86 | > 50 µM | 1.22 | > 14.8 µM | 1.23 | > 50 µM | 9.71 | > 50 µM | 1.89 | > 50 µM | 1.22 | 4.12 µM | 1.67 | 12 µM | 49.9 | > 50 µM
COc1cc2c3c(c1OC)C1(C=CC(=O)C=C1)CC3N(C(=O)OC(C)(C)C(Cl)(Cl)Cl)CC2 (stereo unspecified) | – | 22.4 | – | 28.5 | – | 23.4 µM | – | 30.4 µM | – | 27.2 µM | – | 49.4 µM | – | 50.2 µM | – | 28.9 µM | – | 29 µM | – | 38.4 µM
C[N+](C)(C)CC(=O)NC(=O)N/N=C\C(CC#N)CN(Cc1ccccc1)Cc1ccccc1 (stereo unspecified) | – | > 100 | – | > 100 | – | > 100 µM | – | > 100 µM | – | > 100 µM | – | > 100 µM | – | > 100 µM | – | > 100 µM | – | > 100 µM | – | > 100 µM
C=CC[n+]1c(/C=C2\Sc3ccccc3N2C)sc(-c2ccccc2)c1-c1ccccc1 | 0.315 | 12.4 | 1.61 | 4.4 | 0.353 | 1.87 µM | 0.411 | 12.5 µM | 0.253 | 0.672 µM | 0.339 | 11 µM | 0.344 | 10 µM | 0.276 | 0.903 µM | 0.249 | 0.658 µM | 0.383 | 12.6 µM
Cc1cc(C)c2nc(Nc3nc(C)c(C)c(=O)[nH]3)nc(C)c2c1 | 3.18 | 12 | 1.82 | 5.86 | 2.18 | 7.43 µM | 2.54 | 10.3 µM | 1.61 | 7.48 µM | 2.27 | 5.92 µM | 2.53 | 11.1 µM | 2.29 | 6.44 µM | 2.51 | 7.51 µM | 3.01 | 18.5 µM
NS(=O)(=O)OC[C@H]1O[C@@H](n2cnc3c(N[C@H]4CCc5ccccc54)ncnc32)[C@H](O)[C@@H]1O | 0.0353 | 0.121 | 1.41 | 2.88 | 0.0368 | > 52.6 µM | 0.0351 | 0.117 µM | 0.195 | 0.447 µM | 0.871 | 3 µM | 0.0369 | > 100 µM | 0.387 | 1.94 µM | 0.043 | 0.22 µM | 0.305 | 2.24 µM
O=c1cc(N2CCOCC2)oc2c(-c3ccccc3)cccc12 | 11.1 | > 100 | 1.39 | – | – | > 60 µM and 46.6 µM | 5.57 | 31.6 µM and 29.8 µM | 4.46 | > 41.4 µM and 5.6 µM | 6 | > 72.8 µM and 36.7 µM | – | > 100 µM and 79.7 µM | 2.61 | 27.8 µM and 44.7 µM | – | 36.7 µM and 30.1 µM | 5.17 | > 100 µM and 63.8 µM
